# Measurements reported in ChEMBL document CHEMBL4346705, “(±)-trans-Dihydronarciclasine and (±)-trans-dihydrolycoricidine analogues modified in their ring A: Evaluation of their anticancer activity and a SAR study” (2019).
# Tests used:
# Type in all cases: functional
# 786-0 = assay: Antiproliferative activity against human 786-0 cells assessed as cell viability at 10^-5 M incubated for 48 hrs by sulforhodamine B assay relative to control; conditions: 786-0, 48 h, read-out: Activity
# U-251 = assay: Antiproliferative activity against human U251 cells assessed as cell viability at 10^-5 M incubated for 48 hrs by sulforhodamine B assay relative to control; conditions: U-251, 48 h, read-out: Activity
# COLO 205 = assay: Antiproliferative activity against human COLO205 cells assessed as cell viability at 10^-5 M incubated for 48 hrs by sulforhodamine B assay relative to control; conditions: COLO 205, 48 h, read-out: Activity
# LOX IMVI = assay: Antiproliferative activity against human LOXIMVI cells assessed as cell viability at 10^-5 M incubated for 48 hrs by sulforhodamine B assay relative to control; conditions: read-out: Activity
# A549 = assay: Antiproliferative activity against human A549 cells assessed as cell viability at 10^-5 M incubated for 48 hrs by sulforhodamine B assay relative to control; conditions: A549, 48 h, read-out: Activity
# UACC-257 = assay: Antiproliferative activity against human UACC257 cells assessed as cell viability at 10^-5 M incubated for 48 hrs by sulforhodamine B assay relative to control; conditions: UACC-257, 48 h, read-out: Activity
# MDA-MB-231 = assay: Antiproliferative activity against human MDA-MB-231 cells assessed as cell viability at 10^-5 M incubated for 48 hrs by sulforhodamine B assay relative to control; conditions: MDA-MB-231, 48 h, read-out: Activity
# K562 = assay: Antiproliferative activity against human K562 cells assessed as cell viability at 10^-5 M incubated for 48 hrs by sulforhodamine B assay relative to control; conditions: K562, 48 h, read-out: Activity
# NCI-H460 = assay: Antiproliferative activity against human NCI-H460 cells assessed as cell viability at 10^-5 M incubated for 48 hrs by sulforhodamine B assay relative to control; conditions: NCI-H460, 48 h, read-out: Activity
# HCT-116 = assay: Antiproliferative activity against human HCT116 cells assessed as cell viability at 10^-5 M incubated for 48 hrs by sulforhodamine B assay relative to control; conditions: HCT-116, 48 h, read-out: Activity
# SNB-19 = assay: Antiproliferative activity against human SNB19 cells assessed as cell viability at 10^-5 M incubated for 48 hrs by sulforhodamine B assay relative to control; conditions: SNB-19, 48 h, read-out: Activity
# SK-OV-3 = assay: Antiproliferative activity against human SKOV3 cells assessed as cell viability at 10^-5 M incubated for 48 hrs by sulforhodamine B assay relative to control; conditions: SK-OV-3, 48 h, read-out: Activity
# OVCAR-4 = assay: Antiproliferative activity against human OVCAR4 cells assessed as cell viability at 10^-5 M incubated for 48 hrs by sulforhodamine B assay relative to control; conditions: OVCAR-4, 48 h, read-out: Activity
# Malme-3M = assay: Antiproliferative activity against human MALME-3M cells assessed as cell viability at 10^-5 M incubated for 48 hrs by sulforhodamine B assay relative to control; conditions: read-out: Activity
# RXF 393 = assay: Antiproliferative activity against human RXF393 cells assessed as cell viability at 10^-5 M incubated for 48 hrs by sulforhodamine B assay relative to control; conditions: RXF 393, 48 h, read-out: Activity
# HOP-92 = assay: Antiproliferative activity against human HOP92 cells assessed as cell viability at 10^-5 M incubated for 48 hrs by sulforhodamine B assay relative to control; conditions: HOP-92, 48 h, read-out: Activity
# HT-29 = assay: Antiproliferative activity against human HT-29 cells assessed as cell viability at 10^-5 M incubated for 48 hrs by sulforhodamine B assay relative to control; conditions: HT-29, 48 h, read-out: Activity
# MDA-MB-468 = assay: Antiproliferative activity against human MDA-MB-468 cells assessed as cell viability at 10^-5 M incubated for 48 hrs by sulforhodamine B assay relative to control; conditions: MDA-MB-468, 48 h, read-out: Activity
# SK-MEL-28 = assay: Antiproliferative activity against human SK-MEL-28 cells assessed as cell viability at 10^-5 M incubated for 48 hrs by sulforhodamine B assay relative to control; conditions: SK-MEL-28, 48 h, read-out: Activity
# BT-549 = assay: Antiproliferative activity against human BT549 cells assessed as cell viability at 10^-5 M incubated for 48 hrs by sulforhodamine B assay relative to control; conditions: BT-549, 48 h, read-out: Activity
# CAKI-1 = assay: Antiproliferative activity against human Caki1 cells assessed as cell viability at 10^-5 M incubated for 48 hrs by sulforhodamine B assay relative to control; conditions: CAKI-1, 48 h, read-out: Activity
# NCI-H23 = assay: Antiproliferative activity against human NCI-H23 cells assessed as cell viability at 10^-5 M incubated for 48 hrs by sulforhodamine B assay relative to control; conditions: NCI-H23, 48 h, read-out: Activity
# SK-MEL-5 = assay: Antiproliferative activity against human SK-MEL-5 cells assessed as cell viability at 10^-5 M incubated for 48 hrs by sulforhodamine B assay relative to control; conditions: SK-MEL-5, 48 h, read-out: Activity
# HCT-15 = assay: Antiproliferative activity against human HCT15 cells assessed as cell viability at 10^-5 M incubated for 48 hrs by sulforhodamine B assay relative to control; conditions: HCT-15, 48 h, read-out: Activity
# A498 = assay: Antiproliferative activity against human A498 cells assessed as cell viability at 10^-5 M incubated for 48 hrs by sulforhodamine B assay relative to control; conditions: A498, 48 h, read-out: Activity
# UACC-62 = assay: Antiproliferative activity against human UACC62 cells assessed as cell viability at 10^-5 M incubated for 48 hrs by sulforhodamine B assay relative to control; conditions: UACC-62, 48 h, read-out: Activity
# OVCAR-5 = assay: Antiproliferative activity against human OVCAR5 cells assessed as cell viability at 10^-5 M incubated for 48 hrs by sulforhodamine B assay relative to control; conditions: OVCAR-5, 48 h, read-out: Activity
SMILES,viability at 10 µM (786-0) [%],viability at 10 µM (U-251) [%],viability at 10 µM (COLO 205) [%],viability at 10 µM (LOX IMVI) [%],viability at 10 µM (A549) [%],viability at 10 µM (UACC-257) [%],viability at 10 µM (MDA-MB-231) [%],viability at 10 µM (K562) [%],viability at 10 µM (NCI-H460) [%],viability at 10 µM (HCT-116) [%],viability at 10 µM (SNB-19) [%],viability at 10 µM (SK-OV-3) [%],viability at 10 µM (OVCAR-4) [%],viability at 10 µM (Malme-3M) [%],viability at 10 µM (RXF 393) [%],viability at 10 µM (HOP-92) [%],viability at 10 µM (HT-29) [%],viability at 10 µM (MDA-MB-468) [%],viability at 10 µM (SK-MEL-28) [%],viability at 10 µM (BT-549) [%],also measured
CCOc1cc2c(c(O)c1OCC)C(=O)NC1C2CC(O)C(O)C1O (racemic),94.1,98.4,110,98.5,92.8,99.8,103,93.8,113,104,96,98.6,103,102,104,78.5,99.7,94.8,105,100,viability at 10 µM (CAKI-1): 95.7%; viability at 10 µM (NCI-H23): 102%; viability at 10 µM (SK-MEL-5): 102%; viability at 10 µM (HCT-15): 99%; viability at 10 µM (A498): 98.7%; viability at 10 µM (UACC-62): 93%; viability at 10 µM (OVCAR-5): 104%
CCOc1c(OC)cc2c(c1O)C(=O)NC1C2CC(O)C(O)C1O (racemic),102,96.7,115,98.1,94.7,100,106,91.2,112,104,99,98.1,107,102,109,85.2,100,94.9,105,99.6,viability at 10 µM (CAKI-1): 91.3%; viability at 10 µM (NCI-H23): 107%; viability at 10 µM (SK-MEL-5): 101%; viability at 10 µM (HCT-15): 102%; viability at 10 µM (A498): 99.5%; viability at 10 µM (UACC-62): 93.1%; viability at 10 µM (OVCAR-5): 98.7%
CCOc1cc2c(c(OC)c1OCC)C(=O)NC1C2CC(O)C(O)C1O (racemic),96.1,95.4,116,98.4,84.3,98.2,107,98.3,102,95.6,97.7,103,105,111,105,86.4,98.3,96.2,105,101,viability at 10 µM (CAKI-1): 90.1%; viability at 10 µM (NCI-H23): 95.8%; viability at 10 µM (SK-MEL-5): 102%; viability at 10 µM (HCT-15): 99.5%; viability at 10 µM (A498): 102%; viability at 10 µM (UACC-62): 97.3%; viability at 10 µM (OVCAR-5): 109%
CCOc1cc2c(c(OCC)c1OCC)C(=O)NC1C2CC(O)C(O)C1O (racemic),97.9,101,115,98.7,95.8,101,121,98.4,109,101,104,105,105,112,110,82.8,104,107,107,108,viability at 10 µM (CAKI-1): 94.2%; viability at 10 µM (NCI-H23): 101%; viability at 10 µM (SK-MEL-5): 107%; viability at 10 µM (HCT-15): 104%; viability at 10 µM (A498): 102%; viability at 10 µM (UACC-62): 101%; viability at 10 µM (OVCAR-5): 104%
